What was measured:
[1] = species on record: Rattus norvegicus; experiment: DrugMatrix - Regimen: Daily Repeat; assay type: toxicity, organism-based, Sprague-Dawley; design: regimen Daily Repeat, gender Male, age 6-8 weeks; conditions: in vivo, po, 75 mg/kg, route oral GAVAGE, dose level High, vehicle .5 % CMC
[2] = species on record: Rattus norvegicus; assay type: toxicity, organism-based, Sprague-Dawley; conditions: in vivo, po, 75 mg/kg, 24 h, route oral GAVAGE, dose level High, time 1 day, vehicle .5 % CMC
Description: DrugMatrix - Regimen: Single

[3] = […], tissue Plasma, time 14 day

Nc1ccc(Cl)cc1 [4-CHLOROANILINE]
URIC ACID ([1]; 120 h, tissue Plasma, time 5 day): 1.87 mg/dL
ABSOLUTE BASOPHIL ([1]; […], tissue Blood, time 14 day): 0 CELLS/uL
ABSOLUTE EOSINOPHIL ([1]; […], tissue Blood, time 14 day): 83.2 CELLS/uL
ABSOLUTE LYMPHOCYTE ([1]; […], tissue Blood, time 14 day): 19196.8 CELLS/uL
ABSOLUTE MONOCYTE ([1]; […], tissue Blood, time 14 day): 524.8 CELLS/uL
ABSOLUTE SEGMENTED NEUTROPHIL ([1]; […], tissue Blood, time 14 day): 2275.2 CELLS/uL
BASOPHIL ([1]; […], tissue Blood, time 14 day): 0%
EOSINOPHIL ([1]; […], tissue Blood, time 14 day): 0.4%
ERYTHROCYTE COUNT ([1]; […], tissue Blood, time 14 day): 3.73 x10E6/uL
HEMATOCRIT ([1]; […], tissue Blood, time 14 day): 34.9%
HEMOGLOBIN ([1]; […], tissue Blood, time 14 day): 13.26 G/DL
LEUKOCYTE COUNT ([1]; […], tissue Blood, time 14 day): 22.08 x10E3/uL
LYMPHOCYTE ([1]; […], tissue Blood, time 14 day): 86.8%
MEAN CORPUSCULAR HEMOGLOBIN ([1]; […], tissue Blood, time 14 day): 35.82 pg
MEAN CORPUSCULAR HEMOGLOBIN CONCENTRATION ([1]; […], tissue Blood, time 14 day): 38.02 G/DL
MEAN CORPUSCULAR VOLUME ([1]; […], tissue Blood, time 14 day): 94.18 fL
MONOCYTE ([1]; […], tissue Blood, time 14 day): 2.4%
NEUTROPHIL ([1]; […], tissue Blood, time 14 day): 10.4%
NUCLEATED RED BLOOD CELLS ([1]; […], tissue Blood, time 14 day): 1 /100WBC
PLATELET COUNT ([1]; […], tissue Blood, time 14 day): 846.6 x10E3/uL
ALANINE AMINOTRANSFERASE [1, 3]: 56.6 u/L
ALBUMIN [1, 3]: 4.38 G/DL
ALKALINE PHOSPHATASE [1, 3]: 320.6 u/L
ASPARTATE AMINOTRANSFERASE [1, 3]: 128 u/L
BLOOD UREA NITROGEN [1, 3]: 15.4 mg/dL
CARBON DIOXIDE [1, 3]: 29.8 mmol/L
CHLORIDE [1, 3]: 103.2 MEQ/L
CHOLESTEROL [1, 3]: 57 mg/dL
CREATININE [1, 3]: 0.22 mg/dL
GLUCOSE [1, 3]: 123.8 mg/dL
LACTATE DEHYDROGENASE [1, 3]: 440.6 u/L
LIPASE [1, 3]: 9.6 u/L
PHOSPHORUS [1, 3]: 10.5 mg/dL
POTASSIUM [1, 3]: 6.12 MEQ/L
SODIUM [1, 3]: 148.96 MEQ/L
TOTAL BILIRUBIN [1, 3]: 0.54 mg/dL
TOTAL PROTEIN [1, 3]: 6.16 G/DL
URIC ACID [1, 3]: 1.72 mg/dL
ABSOLUTE EOSINOPHIL ([2]; tissue Blood): 269 CELLS/uL
ABSOLUTE LYMPHOCYTE ([2]; tissue Blood): 17566.67 CELLS/uL
ABSOLUTE MONOCYTE ([2]; tissue Blood): 600.33 CELLS/uL
ABSOLUTE SEGMENTED NEUTROPHIL ([2]; tissue Blood): 3397.33 CELLS/uL
BASOPHIL ([2]; tissue Blood): 0%
EOSINOPHIL ([2]; tissue Blood): 1.33%
ERYTHROCYTE COUNT ([2]; tissue Blood): 5.88 x10E6/uL
HEMATOCRIT ([2]; tissue Blood): 36.53%
HEMOGLOBIN ([2]; tissue Blood): 13.03 G/DL
LEUKOCYTE COUNT ([2]; tissue Blood): 21.83 x10E3/uL
LYMPHOCYTE ([2]; tissue Blood): 81.67%
MEAN CORPUSCULAR HEMOGLOBIN ([2]; tissue Blood): 22.17 pg
MEAN CORPUSCULAR HEMOGLOBIN CONCENTRATION ([2]; tissue Blood): 35.7 G/DL
MEAN CORPUSCULAR VOLUME ([2]; tissue Blood): 62.13 fL
MONOCYTE ([2]; tissue Blood): 2.67%
NEUTROPHIL ([2]; tissue Blood): 14.33%
NUCLEATED RED BLOOD CELLS ([2]; tissue Blood): 0 /100WBC
PLATELET COUNT ([2]; tissue Blood): 950.67 x10E3/uL
ALANINE AMINOTRANSFERASE ([2]; tissue Plasma): 53 u/L
ALBUMIN ([2]; tissue Plasma): 4.37 G/DL
ALKALINE PHOSPHATASE ([2]; tissue Plasma): 533.33 u/L
ASPARTATE AMINOTRANSFERASE ([2]; tissue Plasma): 101 u/L
BLOOD UREA NITROGEN ([2]; tissue Plasma): 13.67 mg/dL
CARBON DIOXIDE ([2]; tissue Plasma): 25.67 mmol/L
CHLORIDE ([2]; tissue Plasma): 102.33 MEQ/L
CHOLESTEROL ([2]; tissue Plasma): 75.33 mg/dL
CREATININE ([2]; tissue Plasma): 0.19 mg/dL
GLUCOSE ([2]; tissue Plasma): 168 mg/dL
LACTATE DEHYDROGENASE ([2]; tissue Plasma): 480 u/L
LIPASE ([2]; tissue Plasma): 9.67 u/L
PHOSPHORUS ([2]; tissue Plasma): 13.93 mg/dL
POTASSIUM ([2]; tissue Plasma): 6.69 MEQ/L
SODIUM ([2]; tissue Plasma): 146.3 MEQ/L
TOTAL BILIRUBIN ([2]; tissue Plasma): 0.23 mg/dL
TOTAL PROTEIN ([2]; tissue Plasma): 6.3 G/DL
URIC ACID ([2]; tissue Plasma): 2.2 mg/dL

Reference: ChEMBL document CHEMBL3885881, “DrugMatrix”
